In patent publication US6911431B1 (priority 1989, dated 2005):

Key:
Lewis lung carcinoma = test: Inhibition of Lewis lung tumor neovascularization; format: in vivo, C57BL/6 mice
Experimental: Lewis lung carcinoma cells (5×10^7) when injected (0.1 ml) intradermally into both flanks of C57BL/6 mice (day 0) produce a visible highly vascularized tumor nodules within 7 days. By excising the tumor the degree of tumor vascularity may be determined microscopically by counting the number of large vessels radiating from the tumor mass.

[1] = system: chicken embryo chorioallantoic membrane; test: Chicken embryo chorioallantoic membrane (CAM) angiogenesis assay; format: in vivo; conditions: for Inhibition of Neovascularization Grade/Range / Mean % Inhibition of Neovascularization / Inhibition of Neovascularization Grade/Mean ± SD: 48 hrs; for Inhibition of Neovascularization Grade/Mean ± SD: grade scale 0-4
Experimental: Briefly, eight-day chicken embryos were removed from eggs and placed into sterile petri dishes. Individual filter paper disks were saturated with 7.5 μl of different stock solutions of L-Glu-L-Trp dissolved in sterile 0.14M NaCl to achieve final test concentrations of 0.001, 0.01, 0.1, 1.0, 10, 100, 500, and 1000 μg per disk. Disks were air dried and then inverted onto the surface of the respective embryos.
In this experiment saline served as a negative control and 10 μg/disk of heparin served as a positive control. The pentapeptide Thr-Ala-Glu-Glu-Lys (TAEEK) (SEQ ID NO 7) served as a specificity control, (i.e., for possible nonspecific effects of peptides on neovascularization at the concentrations tested). Nine-12 test disks and a corresponding number of different embryos were employed for each test concentration along with […] (each) positive and negative control embryos.

Sarcoma 180 tumors = test: Sarcoma 180 tumor size after prophylactic treatment; format: in vivo, Swiss-Webster mice
Experimental: Neovascularization is required for tumor growth. Anti-tumor activity of L-Glu-L-Trp was evaluated at an independent contract research organization. Sarcoma 180 tumors (ATCC CCL-8 CCRF S-180 II) were induced by injecting 2×10^6 cells/0.1 ml im into each rear flank of Swiss-Webster mice. Groups consisted of 10 animals (20 tumors). L-Glu-L-Trp was administered in a single 0.1 ml dose of either 10 μg/kg, 75 μg/kg, 250 μg/kg or 1000 μg/kg. Tumor size was evaluated by surgically removing and weighing the affected limbs, and comparing the weight with the weight of normal control (non-tumor) limbs. The first prophylactic drug regimen (PDR-1) consisted of 5 consecutive daily ip injections commencing on day −5 and ending of day −1. The second prophylactic drug regimen (PDR-2) consisted of 5 consecutive daily im injections to the left rear flank (tumor site) beginning on day −5 and ending on day −1. Sarcoma 180 cells were injected im on day 0. Saline 0.1 ml served as the negative control.

[2] = PDR-1 (ip, day −5 to −1), 10 μg/kg
[3] = PDR-1 (ip, day −5 to −1), 75 μg/kg
[4] = PDR-1 (ip, day −5 to −1), 250 μg/kg
[5] = PDR-1 (ip, day −5 to −1), 1000 μg/kg
[6] = PDR-2 (im left flank), 10 μg/kg
[7] = PDR-2 (im left flank), 75 μg/kg
[8] = PDR-2 (im left flank), 250 μg/kg
[9] = PDR-2 (im left flank), 1000 μg/kg
[10] = PDR-2 (im left rear flank, day −5 to −1), 10 μg/kg
[11] = PDR-2 (im left rear flank, day −5 to −1), 75 μg/kg
[12] = PDR-2 (im left rear flank, day −5 to −1), 250 μg/kg
[13] = PDR-2 (im left rear flank, day −5 to −1), 1000 μg/kg

O=P1(N(CCCl)CCCl)NCCCO1 (stereo not shown) [Cytoxan, reference compound]
No. Vessels (Mean ± S.D.) (Lewis lung carcinoma; Dose 200 (column head μg/kg/dose), administered only on day 2): 9 ± 5

L-Glu-L-Trp
Inhibition of Neovascularization Grade/Range ([1]; 0.001 μg/disk): 0-2
Mean % Inhibition of Neovascularization ([1]; 0.001 μg/disk): 33 ± 20%
Inhibition of Neovascularization Grade/Mean ± SD ([1]; 0.001 μg/disk): 1.3 ± 0.82
decrease in vascularity in embryos ([1]; 10 ng-1000 μg in saline): 30-88%
Inhibition of Neovascularization Grade/Range ([1]; 0.01 μg/disk): 1-2
Mean % Inhibition of Neovascularization ([1]; 0.01 μg/disk): 38 ± 13%
Inhibition of Neovascularization Grade/Mean ± SD ([1]; 0.01 μg/disk): 1.5 ± 0.53
Inhibition of Neovascularization Grade/Range ([1]; 0.1 μg/disk): 0-3
Mean % Inhibition of Neovascularization ([1]; 0.1 μg/disk): 48 ± 23%
Inhibition of Neovascularization Grade/Mean ± SD ([1]; 0.1 μg/disk): 1.9 ± 0.88
Inhibition of Neovascularization Grade/Range ([1]; 1 μg/disk): 1-4
Mean % Inhibition of Neovascularization ([1]; 1 μg/disk): 58 ± 23%
Inhibition of Neovascularization Grade/Mean ± SD ([1]; 1 μg/disk): 2.33 ± 0.89
Inhibition of Neovascularization Grade/Range ([1]; 10 μg/disk): 1-4
Mean % Inhibition of Neovascularization ([1]; 10 μg/disk): 78 ± 28%
Inhibition of Neovascularization Grade/Mean ± SD ([1]; 10 μg/disk): 3.09 ± 1.14
Inhibition of Neovascularization Grade/Range ([1]; 100 μg/disk): 3-4
Mean % Inhibition of Neovascularization ([1]; 100 μg/disk): 85 ± 18%
Inhibition of Neovascularization Grade/Mean ± SD ([1]; 100 μg/disk): 3.44 ± 0.73
Inhibition of Neovascularization Grade/Range ([1]; 500 μg/disk): 1-4
Mean % Inhibition of Neovascularization ([1]; 500 μg/disk): 60 ± 20%
Inhibition of Neovascularization Grade/Mean ± SD ([1]; 500 μg/disk): 2.4 ± 0.84
Inhibition of Neovascularization Grade/Range ([1]; 1000 μg/disk): 2-4
Mean % Inhibition of Neovascularization ([1]; 1000 μg/disk): 83 ± 20%
Inhibition of Neovascularization Grade/Mean ± SD ([1]; 1000 μg/disk): 3.3 ± 0.82
No. Vessels (Mean ± S.D.) (Lewis lung carcinoma; 125 μg/kg/dose im daily for 5 days): 6 ± 3
No. Vessels (Mean ± S.D.) (Lewis lung carcinoma; 250 μg/kg/dose im daily for 5 days): 7 ± 2
No. Vessels (Mean ± S.D.) (Lewis lung carcinoma; 500 μg/kg/dose im daily for 5 days): 9 ± 4
No. Vessels (Mean ± S.D.) (Lewis lung carcinoma; 1000 μg/kg/dose im daily for 5 days): 12 ± 5
No. Vessels (Mean ± S.D.) (Lewis lung carcinoma; 2000 μg/kg/dose im daily for 5 days): 17 ± 7
Mean Tumor Weight Left (Sarcoma 180 tumors; PDR-1 (ip), 10 μg/kg): 3.0
Percent of Control Tumor Weight Left (Sarcoma 180 tumors; PDR-1 (ip), 10 μg/kg): 120%
Mean Tumor Weight Right (Sarcoma 180 tumors; PDR-1 (ip), 10 μg/kg): 2.9
Percent of Control Tumor Weight Right (Sarcoma 180 tumors; PDR-1 (ip), 10 μg/kg): 126%
Mean Tumor Weight Left (Sarcoma 180 tumors; PDR-1 (ip), 75 μg/kg): 3.0
Percent of Control Tumor Weight Left (Sarcoma 180 tumors; PDR-1 (ip), 75 μg/kg): 120%
Mean Tumor Weight Right (Sarcoma 180 tumors; PDR-1 (ip), 75 μg/kg): 3.0
Percent of Control Tumor Weight Right (Sarcoma 180 tumors; PDR-1 (ip), 75 μg/kg): 130%
Mean Tumor Weight Left (Sarcoma 180 tumors; PDR-1 (ip), 250 μg/kg): 2.3
Percent of Control Tumor Weight Left (Sarcoma 180 tumors; PDR-1 (ip), 250 μg/kg): 92%
Mean Tumor Weight Right (Sarcoma 180 tumors; PDR-1 (ip), 250 μg/kg): 1.9
Percent of Control Tumor Weight Right (Sarcoma 180 tumors; PDR-1 (ip), 250 μg/kg): 83%
Mean Tumor Weight Left (Sarcoma 180 tumors; PDR-1 (ip), 1000 μg/kg): 1.3
Percent of Control Tumor Weight Left (Sarcoma 180 tumors; PDR-1 (ip), 1000 μg/kg): 52%
Mean Tumor Weight Right (Sarcoma 180 tumors; PDR-1 (ip), 1000 μg/kg): 1.0
Percent of Control Tumor Weight Right (Sarcoma 180 tumors; PDR-1 (ip), 1000 μg/kg): 43%
Leg Weight Left (Sarcoma 180 tumors; [2]): 4.2 ± 0.9 g
Leg Weight Right (Sarcoma 180 tumors; [2]): 4.1 ± 0.7 g
Leg Weight Left (Sarcoma 180 tumors; [3]): 4.2 ± 0.8 g
Leg Weight Right (Sarcoma 180 tumors; [3]): 4.2 ± 0.8 g
Leg Weight Left (Sarcoma 180 tumors; [4]): 3.5 ± 1.0 g
Leg Weight Right (Sarcoma 180 tumors; [4]): 3.1 ± 0.6 g
Leg Weight Left (Sarcoma 180 tumors; [5]): 2.5 ± 0.7 g
Leg Weight Right (Sarcoma 180 tumors; [5]): 2.2 ± 0.5 g
Mean Tumor Weight Left (Sarcoma 180 tumors; [6]): 2.4
Percent of Control Tumor Weight Left (Sarcoma 180 tumors; [6]): 96%
Mean Tumor Weight Right (Sarcoma 180 tumors; [6]): 2.6
Percent of Control Tumor Weight Right (Sarcoma 180 tumors; [6]): 113%
Mean Tumor Weight Left (Sarcoma 180 tumors; [7]): 2.4
Percent of Control Tumor Weight Left (Sarcoma 180 tumors; [7]): 96%
Mean Tumor Weight Right (Sarcoma 180 tumors; [7]): 3.3
Percent of Control Tumor Weight Right (Sarcoma 180 tumors; [7]): 143%
Mean Tumor Weight Left (Sarcoma 180 tumors; [8]): 1.8
Percent of Control Tumor Weight Left (Sarcoma 180 tumors; [8]): 72%
Mean Tumor Weight Right (Sarcoma 180 tumors; [8]): 1.1
Percent of Control Tumor Weight Right (Sarcoma 180 tumors; [8]): 48%
Mean Tumor Weight Left (Sarcoma 180 tumors; [9]): 1.2
Percent of Control Tumor Weight Left (Sarcoma 180 tumors; [9]): 48%
Mean Tumor Weight Right (Sarcoma 180 tumors; [9]): 1.3
Percent of Control Tumor Weight Right (Sarcoma 180 tumors; [9]): 57%
Leg Weight Left (Sarcoma 180 tumors; [10]): 3.6 ± 0.7 g
Leg Weight Right (Sarcoma 180 tumors; [10]): 3.8 ± 0.7 g
Leg Weight Left (Sarcoma 180 tumors; [11]): 3.6 ± 0.7 g
Leg Weight Right (Sarcoma 180 tumors; [11]): 3.5 ± 0.3 g
Leg Weight Left (Sarcoma 180 tumors; [12]): 3.0 ± 0.1 g
Leg Weight Right (Sarcoma 180 tumors; [12]): 2.3 ± 0.5 g
Leg Weight Left (Sarcoma 180 tumors; [13]): 2.4 ± 0.5 g
Leg Weight Right (Sarcoma 180 tumors; [13]): 2.5 ± 0.5 g

Thr-Ala-Glu-Glu-Lys (TAEEK) [pentapeptide specificity control]
Inhibition of Neovascularization Grade/Range ([1]; 0.001 μg/disk): 0-0
Mean % Inhibition of Neovascularization ([1]; 0.001 μg/disk): 0%
Inhibition of Neovascularization Grade/Mean ± SD ([1]; 0.001 μg/disk): 0 ± 0
Inhibition of Neovascularization Grade/Range ([1]; 0.01 μg/disk): 0-0
Mean % Inhibition of Neovascularization ([1]; 0.01 μg/disk): 0%
Inhibition of Neovascularization Grade/Mean ± SD ([1]; 0.01 μg/disk): 0 ± 0
Inhibition of Neovascularization Grade/Range ([1]; 0.1 μg/disk): 0-0
Mean % Inhibition of Neovascularization ([1]; 0.1 μg/disk): 0%
Inhibition of Neovascularization Grade/Mean ± SD ([1]; 0.1 μg/disk): 0 ± 0
Inhibition of Neovascularization Grade/Range ([1]; 1 μg/disk): 0-1
Mean % Inhibition of Neovascularization ([1]; 1 μg/disk): 8 ± 10%
Inhibition of Neovascularization Grade/Mean ± SD ([1]; 1 μg/disk): 0.33 ± 0.49
Inhibition of Neovascularization Grade/Range ([1]; 10 μg/disk): 0-1
Mean % Inhibition of Neovascularization ([1]; 10 μg/disk): 5 ± 10%
Inhibition of Neovascularization Grade/Mean ± SD ([1]; 10 μg/disk): 0.18 ± 0.40
Inhibition of Neovascularization Grade/Range ([1]; 100 μg/disk): 0-2
Mean % Inhibition of Neovascularization ([1]; 100 μg/disk): 18 ± 23%
Inhibition of Neovascularization Grade/Mean ± SD ([1]; 100 μg/disk): 0.67 ± 0.87
Inhibition of Neovascularization Grade/Range ([1]; 500 μg/disk): 0-1
Mean % Inhibition of Neovascularization ([1]; 500 μg/disk): 9 ± 13%
Inhibition of Neovascularization Grade/Mean ± SD ([1]; 500 μg/disk): 0.3 ± 0.48
Inhibition of Neovascularization Grade/Range ([1]; 1000 μg/disk): 0-2
Mean % Inhibition of Neovascularization ([1]; 1000 μg/disk): 18 ± 20%
Inhibition of Neovascularization Grade/Mean ± SD ([1]; 1000 μg/disk): 0.7 ± 0.82

heparin
Inhibition of Neovascularization Grade/Range ([1]; 10 μg/disk): 1-4
Mean % Inhibition of Neovascularization ([1]; 10 μg/disk): 81 ± 18%
Inhibition of Neovascularization Grade/Mean ± SD ([1]; 10 μg/disk): 3.26 ± 0.73
